Columns and labels:
[1] = target: T1, TYK2-JH2 (aa 575-869, in-house) protein (Homo sapiens, UniProt P29597); test: TYK2-JH2 biochemical assay (HTRF, blocking of TYK2-JH2 protein with its probe); type: binding; details: for IC50: HTRF, 0.2 nM recombinant TYK2-JH2, Probe 1; for Biochemical assay Selectivity fold (TYK2/JAK1): TYK2-JH2 vs JAK1-JH2 biochemical IC50
T1 construct: TYK2-JH2 (aa 575-869, in-house) protein; made in house
Method: Assay A: TYK2-JH2 Biochemical Assay
Compounds disclosed herein were tested for blocking of TYK2-JH2 (aa 575-869, in-house) protein with its probe in an assay based on Homogeneous Time Resolved Fluorescence.
Compound dilution is done according to the following protocol: (1) Prepare 500× compounds solution in DMSO from 500 uM by 5-fold dilution, total 10 doses were included; (2) Prepare 10× compounds solution in an assay buffer containing 20 mM HEPES, pH 7.5, 10 mM MgCl2, 0.005% BSA, 2 mM DTT, 0.015% Brij-35 by transferring 1 μl serial 500× stock solution into 49 μl assay buffer. 4 μl of 0.2 nM recombinant TYK2-JH2 protein was pre-incubated with 1 μl of 10×serial dilution of compounds at room temperature for 0.5 hour. Then 5 μl of 10 nM in-house Probe 1 (6-((3,5-dimethylphenyl)amino)-8-((4,26-dioxo-30-((3aS,4S,6aR)-2-oxohexahydro-1H-thieno[3,4-d]imidazol-4-yl)-7,10,13,16,19,22-hexaoxa-3,25-diazatriacontyl)amino)imidazo[1,2-b]pyridazine-3-carboxamide, KD=10 nM), 5 μl Mab Anti-6His Tb cryptate Gold (Cat: 61HI2TLB, Cisbio Bioassays) and Streptavidin-XL665(Cat: 610SAXLB, Cisobio Bioassays) mixture were added to plate and further incubated at room temperature for 1 hour. The HTRF signals (ex337 nm, em620 nm/665 nm) were read on BMG PHERAstar FS instrument. The inhibition percentage of TYK2 interaction with its probe in presence of increasing concentrations of compounds was calculated based on the ratio of fluorescence at […]. The IC50 for each compound was derived from fitting the data to the four-parameter logistic equation by Dotmatics.

[2] = target: T2, JAK1-JH2 protein (aa 561-860, in-house) (Homo sapiens, UniProt P23458); test: JAK1-JH2 biochemical assay (HTRF, blocking of JAK1-JH2 protein with its probe); type: binding; details: 1.17 nM recombinant JAK1-JH2, Probe 2
T2 construct: JAK1-JH2 protein (aa 561-860, in-house); made in house
T2 sequence (P23458 561-860): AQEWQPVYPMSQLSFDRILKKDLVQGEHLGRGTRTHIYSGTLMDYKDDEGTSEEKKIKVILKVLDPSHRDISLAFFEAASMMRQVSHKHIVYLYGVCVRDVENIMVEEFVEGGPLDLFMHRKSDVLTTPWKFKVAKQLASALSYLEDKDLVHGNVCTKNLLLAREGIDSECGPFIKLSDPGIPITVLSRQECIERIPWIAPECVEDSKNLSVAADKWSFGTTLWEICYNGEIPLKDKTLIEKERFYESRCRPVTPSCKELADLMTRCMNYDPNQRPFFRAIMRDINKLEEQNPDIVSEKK
Method: Assay B: JAK1-JH2 Biochemical Assay
Compounds disclosed herein were tested for blocking of JAK1-JH2 protein (aa 561-860, in-house) with its probe in an assay based on Homogeneous Time Resolved Fluorescence. Compound dilution is done according to the following protocol: (1) Prepare 500× compounds solution in DMSO from 500 uM by 5-fold dilution, total 10 doses were included; (2) Prepare 10× compounds solution in an assay buffer containing 20 mM HEPES, pH 7.5, 10 mM MgCl2, 0.005% BSA, 2 mM DTT, 0.015% Brij-35 by transferring 1 μl serial 500× stock solution into 49 μl assay buffer. 4 μL of 1.17 nM recombinant JAK1-JH2 protein was pre-incubated with 1 μl of 10×serial dilution of compounds at room temperature for 0.5 hour. […] The HTRF signals (ex337 nm, em620 nm/665 nm) were read on BMG PHERAstar FS instrument. The inhibition percentage of JAK1 interaction with its probe in presence of increasing concentrations of compounds was calculated based on the ratio of fluorescence at 615 nm to that at 665 nm. The IC50 for each compound was derived from fitting the data to the four-parameter logistic equation by Dotmatics.

[3] = tested on: JAK2, TYK2/p-STAT4 (Tyr693) activated by IL-12 in NK-92 cell line; test: IL-12-JAK2, TYK2/p-STAT4 (Tyr693) inhibition cellular assay; type: cell-based; details: for IC50: NK92, 0.5 h, NK-92 cells, IL-12 40 ng/ml, 30 min, read-out: Cellular assay pSTAT4/IL-12 IC50; for Cellular assay Selectivity fold (TYK2/JAK1): pSTAT4/IL-12 vs pSTAT3/IL-6 cellular IC50
Description: Assay C: IL-12-JAK2, TYK2/p-STAT4 (Tyr693) Inhibition IC50 Cellular Assay
To evaluate the inhibition effect of compounds disclosed herein on JAK2, TYK2/p-STAT4 (Tyr693) activated by IL-12 in NK-92 cell line, NK-92 cells were collected and washed 3 times by DPBS and resuspended in MEM-α(GIBCO,Cat #12561056) with 10% FBS (Gibco, Cat #10099, Lot #1891605), without IL-2 (R&D systems,Cat #202-IL), starved overnight. Cells were collected and resuspended in 1640 medium (phenol red free, Gibco, Cat #11835-030) with 0.1% BSA, and 12.5 μl/5×10^4/well cell suspension were seeded to the 96-well plate (Corning, Cat #3799). Then cells were treated with compounds diluted in 0.2% DMSO 1640 medium, at 37° C., 1 h. Dilution is done according to the following protocol: (1) make 500× compounds solution in DMSO from 5 mM by 4-fold dilution, total 8 doses were included; (3) make 2× compounds solution in assay medium by transferring 0.5 μl serial 500× stock solution into 125 μl assay medium; (4) 15 μl of 2× serial solution is added to cells and incubate at 37° C. for 1 h, the final compound conc. is 10000,2500,625,156.25,39,9.8,2.4 and 0.61 nM, respectively. After 1 h, cells were treated with 2.5 μl medium containing IL-12 at 37° C. (R&D systems, Cat #219-IL-005, final conc.40 ng/ml), 30 min. Following cells were lysed with 7.5 μl lysis buffer at RT, shaking on shaker for 1 h. 10 μL of cell lysate were transferred to a PE 384-well Proxiplate detection plate, and 5 μL of pre-mixed Alphascreen beads were added to each well. Covered the plate with a plate sealer, span 1000 rpm for 1 min, mix, Incubated overnight at room temperature. Read on BMG PheraStar with Alphascreen protocol. IC 50 values were calculated by fitting dependent data to the four-parameter logistic model using dotmatics software. The assay was performed by using AlphaLISA SureFire Ultra p-STAT4 (Tyr693) Assay Kit—High Volume (PE, Cat #ALSU-PST4-A-HV).

[4] = tested on: JAK1/p-STAT3(Tyr705) activated by IL-6 in TF-1 cell line; test: IL-6-JAK1/p-STAT3(Tyr705) inhibition cellular assay; type: cell-based; details: Homo sapiens, 0.5 h; TF-1 cells, IL-6 50 ng/ml, 30 min; read-out: Cellular assay pSTAT3/IL-6 IC50
Description: Assay D: IL-6-JAK1/p-STAT3(Tyr705) Inhibition IC50 Cellular Assay
To evaluate the inhibition effect of compounds disclosed herein on JAK1/p-STAT3(Tyr705) activated by IL-6 in TF-1 cell line, TF-1 cells were collected and washed 3 times by DPBS and resuspended in RPMI-1640 (phenol red free, Gibco, Cat #11835-030) with 0.1% FBS (Gibco, Cat #10099, Lot #1891605), without GM-CSF(R&D systems,Cat #215-GM-050), starved overnight. Cells were collected and resuspended in 1640 medium (phenol red free, Gibco, Cat #11835-030) with 0.1% BSA, and 12.5 μl/10×10^4/well cell suspension were seeded to the 96-well plate (Corning, Cat #3799). Then cells were treated with compounds diluted in 0.2% DMSO 1640 medium, at 37° C., 1 h. Dilution is done according to the following protocol: (1) make 500× compounds solution in DMSO from 5 mM by 4-fold dilution, total 8 doses were included; (3) make 2× compounds solution in assay medium by transferring 0.5 μl serial 500× stock solution into 125 μl assay medium; (4) 15 μl of 2× solution is added to cells and incubate at 37° C. for 1 h, the final compound conc. is 10000,2500,625,156.25,39,9.8,2.4 and 0.61 nM, respectively. After 1 h, cells were treated with 2.5 μl medium containing IL-6 at 37° C. (R&D systems, Cat #206-IL-010, final conc.50 ng/ml), 30 min. Following cells were lysed with 10 μl lysis buffer at RT, shaking on shaker for 1 h. 16 μL of cell lysate were transferred to a PE 384-well HTRF detection plate, and 4 μL of pre-mixed HTRF antibodies were added to each well. Covered the plate with a plate sealer, span 1000 rpm for 1 min, mix, Incubated overnight at room temperature. Read on BMG PheraStar with HTRF protocol (337 nm-665 nm-620 nm). IC 50 values were calculated by fitting dependent data to the four-parameter logistic model using dotmatics software. The assay was performed by using HTRF Phospho-STAT3(Tyr705) Cellular Assay Kit (Cisbio, Cat #62AT3PEG).

T1 sequence (P29597 575-869): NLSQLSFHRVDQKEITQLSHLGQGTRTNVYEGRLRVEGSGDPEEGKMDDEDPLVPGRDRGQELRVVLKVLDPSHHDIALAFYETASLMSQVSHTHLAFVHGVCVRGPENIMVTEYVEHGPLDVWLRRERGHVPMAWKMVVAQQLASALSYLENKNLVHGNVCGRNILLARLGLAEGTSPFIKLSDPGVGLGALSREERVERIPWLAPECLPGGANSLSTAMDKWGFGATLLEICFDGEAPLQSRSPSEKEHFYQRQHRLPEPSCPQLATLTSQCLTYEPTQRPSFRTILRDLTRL

With `CNC(=O)c1nnc(NC(=O)C2CC2)cc1Nc1nc2ccc(N3CC(C)(N(C)C)C3)cn2n1` [Example E6] the IC50 [1] was 0.056 nM, the “Biochemical assay Selectivity fold (TYK2/JAK1)” value [1] was 10 fold and the IC50 [2] was 0.56 nM. The IC50 [3] was 15.4 nM, the “Cellular assay Selectivity fold (TYK2/JAK1)” value [3] was 106 fold and the IC50 [4] was 1640 nM.

`CNC(=O)c1nnc(NC(=O)C2CC2)cc1Nc1nc2ccc(N3CC(c4ncn(C)n4)C3)cn2n1` [Example E7, 6-(cyclopropanecar-boxamido)-N-methyl-4-((6-(3-(1-methyl-1H-1,2,4-triazol-3-yl)azetidin-1-yl)-[1,2,4]triazolo [1,5-a]pyridin-2-yl)amino)pyridazine-3-carboxamide] was tested, and the IC50 [1] was 0.084 nM, the “Biochemical assay Selectivity fold (TYK2/JAK1)” value [1] was 9 fold and the IC50 [2] was 0.78 nM. The IC50 [3] was 47.8 nM, the “Cellular assay Selectivity fold (TYK2/JAK1)” value [3] was >209 fold and the IC50 [4] was > 10000 nM.

`CNC(=O)c1nnc(NC(=O)C2CC2)cc1Nc1nc2ccc(N3CC(C)(C)C3)cn2n1` [Example E8, 6-(cyclopropanecar-boxamido)-4-((6-(3,3-dimethylazetidin-1-yl)-[1,2,4]triazolo[1,5-a]pyridin-2-yl)amino)-N-methylpyridazine-3-carboxamide] was tested, and the IC50 [1] was 0.044 nM, the “Biochemical assay Selectivity fold (TYK2/JAK1)” value [1] was 68 fold and the IC50 [2] was 3 nM. The IC50 [3] was 13.8 nM, the “Cellular assay Selectivity fold (TYK2/JAK1)” value [3] was >724 fold and the IC50 [4] was > 10000 nM.

In the case of `CNC(=O)c1nnc(NC(=O)C2CC2)cc1Nc1nc2ccc(N3CC(F)C3)cn2n1` [Example E9, 6-(cyclopropanecar-boxamido)-4-((6-(3-fluoroazetidin-1-yl)-[1,2,4]triazolo[1,5-a]pyridin-2-yl)amino)-N-methylpyridazine-3-carboxamide], the IC50 [1] is reported as 0.097 nM, the “Biochemical assay Selectivity fold (TYK2/JAK1)” value [1] is reported as 25 fold and the IC50 [2] is reported as 2.4 nM. The IC50 [3] was 19.6 nM, the “Cellular assay Selectivity fold (TYK2/JAK1)” value [3] was >510 fold and the IC50 [4] was > 10000 nM.

For `CNC(=O)c1nnc(NC(=O)C2CC2)cc1Nc1nc2ccc(N3CC(F)(F)C3)cn2n1` [Example E10, 6-(cyclopropanecar-boxamido)-4-((6-(3,3-difluoroazetidin-1-yl)-[1,2,4]triazolo[1,5-a]pyridin-2-yl)amino)-N-methylpyridazine-3-carboxamide], the IC50 [1] was 0.15 nM, the “Biochemical assay Selectivity fold (TYK2/JAK1)” value [1] was 20 fold and the IC50 [2] was 3 nM. The IC50 [3] was 47 nM, the “Cellular assay Selectivity fold (TYK2/JAK1)” value [3] was >212 fold and the IC50 [4] was > 10000 nM.

With `CNC(=O)c1nnc(NC(=O)C2CC2)cc1Nc1nc2ccc(N3CCC(N4CC(F)(F)C4)CC3)cn2n1` [Example E12, 6-(cyclopropanecar-boxamido)-4-((6-(4-(3,3-difluoroazetidin-1-yl)piperidin-1-yl)-[1,2,4]triazolo[1,5-a]pyridin-2-yl)amino)-N-methylpyridazine-3-carboxamide] the IC50 [1] was 0.024 nM, the “Biochemical assay Selectivity fold (TYK2/JAK1)” value [1] was 71 fold and the IC50 [2] was 1.7 nM. For the same molecule, the IC50 [3] was 6.31 nM, the “Cellular assay Selectivity fold (TYK2/JAK1)” value [3] was 1478 fold and the IC50 [4] was 9930 nM.

For `CNC(=O)c1nnc(NC(=O)C2CC2)cc1Nc1nc2ccc(N3CCCC(N4CC(F)(F)C4)C3)cn2n1` (stereo not drawn) [Example E13, 6-(cyclopropanecar-boxamido)-4-((6-(3-(3,3-difluoroazetidin-1-yl)piperidin-1-yl)-[1,2,4]triazolo[1,5-a]pyridin-2-yl)amino)-N-methylpyridazine-3-carboxamide], the IC50 [1] was 0.047 nM, the “Biochemical assay Selectivity fold (TYK2/JAK1)” value [1] was 55 fold and the IC50 [2] was 2.6 nM. The IC50 [3] was 15.9 nM, the “Cellular assay Selectivity fold (TYK2/JAK1)” value [3] was >629 fold and the IC50 [4] was > 10000 nM.

In the case of `CNC(=O)c1nnc(NC(=O)C2CC2)cc1Nc1nc2ccc(N3CC(N4CCCCC4)C3)cn2n1` [Example E14, 6-(cyclopropanecar-boxamido)-N-methyl-4-((6-(3-(piperidin-1-yl)azetidin-1-yl)-[1,2,4]triazolo [1,5-a]pyridin-2-yl)amino) pyridazine-3-carboxamide], the IC50 [1] is reported as 0.11 nM, the “Biochemical assay Selectivity fold (TYK2/JAK1)” value [1] is reported as 16 fold and the IC50 [2] is reported as 1.8 nM. For the same molecule, the IC50 [3] was 42.6 nM, the “Cellular assay Selectivity fold (TYK2/JAK1)” value [3] was >234 fold and the IC50 [4] was > 10000 nM.

From patent US12606556B2, “TYK-2 inhibitor” (BEIGENE, LTD., priority 2020, dated 2026)
